The Kinase Knowledgebase extract (Sharma et al. 2016)
pIC50: −log10 of the molar value.

Columns and labels:
[1] = biological target: PIK3CD (Human) (UniProt O00329); experiment: Cell-Based Assay; details: raji
[2] = biological target: PIK3CD (Human) (UniProt O00329); experiment: Enzyme Assay
[3] = biological target: PIK3CG (human) (UniProt P48736); experiment: Enzyme Assay
[4] = biological target: PIK3CB (Human) (UniProt P42338); experiment: Enzyme Assay
Sequence of PIK3CB (Human) (P42338 whole entry, looked up): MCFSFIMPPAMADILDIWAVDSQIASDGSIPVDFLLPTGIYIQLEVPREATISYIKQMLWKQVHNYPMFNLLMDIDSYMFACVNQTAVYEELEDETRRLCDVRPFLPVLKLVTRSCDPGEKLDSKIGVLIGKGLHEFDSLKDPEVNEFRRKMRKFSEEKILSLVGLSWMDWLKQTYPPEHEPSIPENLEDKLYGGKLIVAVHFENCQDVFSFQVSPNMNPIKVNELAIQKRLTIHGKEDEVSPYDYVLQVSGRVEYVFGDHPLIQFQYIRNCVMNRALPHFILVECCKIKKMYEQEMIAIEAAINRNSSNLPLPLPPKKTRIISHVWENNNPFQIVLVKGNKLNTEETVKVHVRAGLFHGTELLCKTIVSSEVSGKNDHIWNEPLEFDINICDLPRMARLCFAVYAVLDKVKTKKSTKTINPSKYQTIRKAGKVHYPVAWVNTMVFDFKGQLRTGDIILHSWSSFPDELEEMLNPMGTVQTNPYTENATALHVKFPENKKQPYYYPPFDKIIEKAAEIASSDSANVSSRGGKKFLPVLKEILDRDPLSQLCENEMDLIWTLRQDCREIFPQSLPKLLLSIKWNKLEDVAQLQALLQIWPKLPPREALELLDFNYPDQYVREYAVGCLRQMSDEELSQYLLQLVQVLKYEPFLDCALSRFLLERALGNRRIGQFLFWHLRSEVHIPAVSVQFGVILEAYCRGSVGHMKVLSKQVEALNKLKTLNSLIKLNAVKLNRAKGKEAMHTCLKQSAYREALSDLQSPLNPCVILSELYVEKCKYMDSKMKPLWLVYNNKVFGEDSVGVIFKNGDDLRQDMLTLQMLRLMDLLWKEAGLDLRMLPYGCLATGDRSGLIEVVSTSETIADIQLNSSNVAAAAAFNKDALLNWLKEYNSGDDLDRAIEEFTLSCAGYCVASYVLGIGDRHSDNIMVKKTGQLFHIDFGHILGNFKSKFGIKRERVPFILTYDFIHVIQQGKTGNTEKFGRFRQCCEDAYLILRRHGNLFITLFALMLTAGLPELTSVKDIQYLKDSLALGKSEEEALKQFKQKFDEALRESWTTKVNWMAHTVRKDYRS

Sequence of PIK3CD (Human) (O00329 whole entry, looked up): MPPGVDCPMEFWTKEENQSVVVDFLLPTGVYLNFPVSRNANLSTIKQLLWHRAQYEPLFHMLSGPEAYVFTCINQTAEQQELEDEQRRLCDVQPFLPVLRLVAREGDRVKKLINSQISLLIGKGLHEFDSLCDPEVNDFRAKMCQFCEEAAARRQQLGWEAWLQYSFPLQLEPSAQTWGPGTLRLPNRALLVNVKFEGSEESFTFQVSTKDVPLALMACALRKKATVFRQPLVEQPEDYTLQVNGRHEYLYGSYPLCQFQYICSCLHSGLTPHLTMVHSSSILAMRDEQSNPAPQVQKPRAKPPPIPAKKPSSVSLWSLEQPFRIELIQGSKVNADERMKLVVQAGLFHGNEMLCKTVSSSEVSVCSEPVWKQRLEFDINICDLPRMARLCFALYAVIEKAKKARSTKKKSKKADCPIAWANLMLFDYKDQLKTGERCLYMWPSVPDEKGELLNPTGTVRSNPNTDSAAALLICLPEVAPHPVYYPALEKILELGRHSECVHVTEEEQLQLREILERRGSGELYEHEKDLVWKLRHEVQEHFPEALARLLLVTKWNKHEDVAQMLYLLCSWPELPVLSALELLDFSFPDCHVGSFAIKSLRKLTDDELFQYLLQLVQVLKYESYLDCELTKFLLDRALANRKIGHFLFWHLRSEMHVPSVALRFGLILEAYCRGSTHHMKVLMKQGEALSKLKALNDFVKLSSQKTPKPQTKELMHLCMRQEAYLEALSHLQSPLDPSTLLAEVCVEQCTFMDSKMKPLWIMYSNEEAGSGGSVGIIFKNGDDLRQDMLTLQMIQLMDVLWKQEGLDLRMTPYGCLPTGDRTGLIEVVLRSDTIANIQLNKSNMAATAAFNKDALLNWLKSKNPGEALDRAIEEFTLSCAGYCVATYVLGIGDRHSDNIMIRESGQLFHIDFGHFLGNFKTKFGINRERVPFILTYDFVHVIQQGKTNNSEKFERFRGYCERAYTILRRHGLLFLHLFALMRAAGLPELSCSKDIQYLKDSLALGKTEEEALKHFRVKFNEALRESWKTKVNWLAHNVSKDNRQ
Sequence of PIK3CG (human) (P48736 whole entry, looked up): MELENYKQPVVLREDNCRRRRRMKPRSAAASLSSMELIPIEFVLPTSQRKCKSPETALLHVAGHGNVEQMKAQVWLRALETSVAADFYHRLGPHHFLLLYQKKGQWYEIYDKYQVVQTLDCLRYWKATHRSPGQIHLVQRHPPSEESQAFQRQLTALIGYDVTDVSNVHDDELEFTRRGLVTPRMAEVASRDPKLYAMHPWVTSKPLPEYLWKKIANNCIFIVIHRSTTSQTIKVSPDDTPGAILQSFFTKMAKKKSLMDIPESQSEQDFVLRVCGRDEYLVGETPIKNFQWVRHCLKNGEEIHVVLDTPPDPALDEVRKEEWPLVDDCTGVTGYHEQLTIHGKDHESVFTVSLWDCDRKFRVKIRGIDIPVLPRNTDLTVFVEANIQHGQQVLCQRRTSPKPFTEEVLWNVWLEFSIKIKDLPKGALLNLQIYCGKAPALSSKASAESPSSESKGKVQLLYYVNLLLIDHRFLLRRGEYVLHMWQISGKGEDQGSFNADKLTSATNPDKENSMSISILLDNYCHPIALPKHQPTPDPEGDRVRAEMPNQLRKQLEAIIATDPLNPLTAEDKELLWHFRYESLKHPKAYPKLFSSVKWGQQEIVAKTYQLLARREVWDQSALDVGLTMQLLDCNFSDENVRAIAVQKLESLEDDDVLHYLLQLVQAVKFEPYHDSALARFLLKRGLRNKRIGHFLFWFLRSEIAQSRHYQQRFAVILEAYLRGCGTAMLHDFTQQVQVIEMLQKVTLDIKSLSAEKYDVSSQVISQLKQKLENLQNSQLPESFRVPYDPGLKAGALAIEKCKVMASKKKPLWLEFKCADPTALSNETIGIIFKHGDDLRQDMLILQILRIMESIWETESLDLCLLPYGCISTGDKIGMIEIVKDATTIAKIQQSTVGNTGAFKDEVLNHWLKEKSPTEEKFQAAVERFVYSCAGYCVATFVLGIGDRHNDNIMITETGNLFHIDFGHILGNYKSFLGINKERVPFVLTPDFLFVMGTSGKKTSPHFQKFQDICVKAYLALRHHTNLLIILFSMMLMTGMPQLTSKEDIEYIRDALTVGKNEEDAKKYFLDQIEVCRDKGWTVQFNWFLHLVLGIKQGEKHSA

pIC50 [1]	pIC50 [2]	pIC50 [3]	pIC50 [4]	Compound
6.30 to 7.00	5.00 to 5.30	6.30 to 7.00	5.00 to 5.30	COc1ncc(C#Cc2cccc3cc([C@H](C)NC(=O)c4c(N)nn5cccnc45)n(-c4ccccc4)c(=O)c23)cn1
6.30 to 7.00	5.00 to 5.30	6.30 to 7.00	5.00 to 5.30	C[C@H](NC(=O)c1c(N)nn2cccnc12)c1cc2cccc(C#Cc3ccncc3)c2c(=O)n1-c1ccccc1
5.00 to 6.00	5.00 to 5.30	6.30 to 7.00	5.00 to 5.30	COC(C)C#Cc1cccc2cc([C@H](C)NC(=O)c3c(N)nn4cccnc34)n(-c3ccccc3)c(=O)c12 (stereo not given in full)
6.30 to 7.00	5.30 to 6.00	7.00 to 9.00	5.30 to 6.00	C[C@H](NC(=O)c1c(N)nn2cccnc12)c1cc2cccc(C#Cc3cscn3)c2c(=O)n1-c1ccccc1
7.00 to 9.00	5.30 to 6.00	6.30 to 7.00	5.30 to 6.00	C[C@H](NC(=O)c1nccnc1N)c1cc2cccc(C#Cc3cnn(C)c3)c2c(=O)n1-c1ccccc1
6.30 to 7.00	5.00 to 5.30	6.30 to 7.00	5.00 to 5.30	C[C@H](NC(=O)c1c(N)nn2cccnc12)c1cc2cccc(C#Cc3cncs3)c2c(=O)n1-c1ccccc1
6.30 to 7.00	5.00 to 5.30	6.00 to 6.30	5.00 to 5.30	C[C@H](NC(=O)c1c(N)nn2cccnc12)c1cc2cccc(CC(=O)c3cnn(C)c3)c2c(=O)n1-c1ccccc1
6.30 to 7.00	5.30 to 6.00	6.30 to 7.00	5.30 to 6.00	C[C@H](NC(=O)c1c(N)nn2cccnc12)c1cc2cccc(C#CC3CC3)c2c(=O)n1-c1ccccc1
5.00 to 6.00	5.00 to 5.30	5.30 to 6.00	5.00 to 5.30	Cc1nn(C)c(C)c1C#Cc1cccc2cc([C@H](C)NC(=O)c3c(N)nn4cccnc34)n(-c3ccccc3)c(=O)c12
6.30 to 7.00	5.30 to 6.00	7.00 to 9.00	5.30 to 6.00	C[C@H](O)C#Cc1cccc2cc([C@H](C)NC(=O)c3c(N)nn4cccnc34)n(-c3ccccc3)c(=O)c12
5.00 to 6.00	5.00 to 5.30	6.30 to 7.00	5.00 to 5.30	C[C@H](NC(=O)c1c(N)nn2cccnc12)c1cc2cccc(C#CC(C)(C)O)c2c(=O)n1-c1ccccc1
5.00 to 6.00	5.00 to 5.30	< 5.30	5.00 to 5.30	COc1cnc(C(=O)N[C@@H](C)c2cc3cccc(C#Cc4cnn(C)c4)c3c(=O)n2-c2ccccc2)c(N)n1
5.00 to 6.00	5.00 to 5.30	5.30 to 6.00	5.00 to 5.30	C[C@H](NC(=O)c1c(N)nn2cccnc12)c1cc2cccc(C#CC(C)(C)C)c2c(=O)n1-c1ccccc1
5.00 to 6.00	5.00 to 5.30	6.00 to 6.30	5.00 to 5.30	Cc1ccncc1C#Cc1cccc2cc([C@H](C)NC(=O)c3c(N)nn4cccnc34)n(-c3ccccc3)c(=O)c12
6.00 to 6.30	5.00 to 5.30	7.00 to 9.00	5.00 to 5.30	Cc1ncc(C#Cc2cccc3cc([C@H](C)NC(=O)c4c(N)nn5cccnc45)n(-c4ccccc4)c(=O)c23)n1C
5.00 to 6.00	5.00 to 5.30	5.30 to 6.00	5.00 to 5.30	Cc1ncsc1C#Cc1cccc2cc([C@H](C)NC(=O)c3c(N)nn4cccnc34)n(-c3ccccc3)c(=O)c12
6.00 to 6.30	5.00 to 5.30	6.30 to 7.00	5.00 to 5.30	Cc1nn(C)cc1C#Cc1cccc2cc([C@H](C)NC(=O)c3c(N)nn4cccnc34)n(-c3ccccc3)c(=O)c12
6.30 to 7.00	5.00 to 5.30	6.30 to 7.00	5.00 to 5.30	C[C@H](NC(=O)c1c(N)nn2cccnc12)c1cc2cccc(C#Cc3ccn(C)n3)c2c(=O)n1-c1ccccc1
6.30 to 7.00	5.30 to 6.00	7.00 to 9.00	5.30 to 6.00	C[C@H](NC(=O)c1c(N)nn2cccnc12)c1cc2cccc(C#Cc3cocn3)c2c(=O)n1-c1ccccc1
5.00 to 6.00	5.00 to 5.30	6.00 to 6.30	5.00 to 5.30	Cc1nc(C)c(C#Cc2cccc3cc([C@H](C)NC(=O)c4c(N)nn5cccnc45)n(-c4ccccc4)c(=O)c23)s1
5.00 to 6.00	5.00 to 5.30	5.30 to 6.00	5.00 to 5.30	Cc1cnc(C(=O)N[C@@H](C)c2cc3cccc(C#Cc4cnn(C)c4)c3c(=O)n2-c2ccccc2)c(N)n1
6.30 to 7.00	5.00 to 5.30	7.00 to 9.00	5.30 to 6.00	C[C@H](NC(=O)c1c(N)nn2cccnc12)c1cc2cccc(C#Cc3cn[nH]c3)c2c(=O)n1-c1ccccc1
6.00 to 6.30	5.00 to 5.30	7.00 to 9.00	5.00 to 5.30	Cc1ccc(C#Cc2cccc3cc([C@H](C)NC(=O)c4c(N)nn5cccnc45)n(-c4ccccc4)c(=O)c23)cn1
6.30 to 7.00	5.00 to 5.30	6.30 to 7.00	5.00 to 5.30	Cc1ncc(C#Cc2cccc3cc([C@H](C)NC(=O)c4c(N)nn5cccnc45)n(-c4ccccc4)c(=O)c23)s1
7.00 to 9.00	6.30 to 9.00	5.30 to 6.00	5.00 to 5.30	C[C@H](NC(=O)c1c(N)nn2cccnc12)c1cc2cccc(C#Cc3ccccc3)c2c(=O)n1-c1ccccc1
6.00 to 6.30	5.00 to 5.30	6.30 to 7.00	5.00 to 5.30	C[C@H](NC(=O)c1c(N)nn2cccnc12)c1cc2cccc(C#Cc3ccnn3C)c2c(=O)n1-c1ccccc1
6.30 to 7.00	5.00 to 5.30	–	5.00 to 5.30	C[C@H](NC(=O)c1c(N)nn2cccnc12)c1nc2cccc(C#Cc3cnn(C)c3)c2c(=O)n1-c1ccccc1

More lines, now with the values behind:

Compound	pIC50 [1]	pIC50 [2]	pIC50 [3]	pIC50 [4]
C[C@H](NC(=O)c1c(N)nn2cccnc12)c1cc2cccc(C#CC3CCCC3)c2c(=O)n1-c1ccccc1	5.00 to 6.00	5.00 to 5.30	5.30 to 6.00	5.00 to 5.30
C/C=C/c1cccc2cc([C@H](C)NC(=O)c3c(N)nn4cccnc34)n(-c3ccccc3)c(=O)c12	7.00 to 9.00	5.00 to 5.30	6.30 to 7.00	5.00 to 5.30
C[C@H](NC(=O)c1c(N)nn2cccnc12)c1cc2cccc(C#CCN3CCN(C)CC3)c2c(=O)n1-c1ccccc1	6.30 to 7.00	5.00 to 5.30	6.30 to 7.00	5.00 to 5.30
C[C@H](NC(=O)c1c(N)nn2cccnc12)c1cc2cccc(C#CC3(O)CN4CCC3CC4)c2c(=O)n1-c1ccccc1 (stereo not given in full)	5.00 to 6.00	5.00 to 5.30	6.00 to 6.30	5.00 to 5.30
C[C@H](NC(=O)c1c(N)nn2cccnc12)c1cc2cccc(C#CC3CNC3)c2c(=O)n1-c1ccccc1	5.00 to 6.00	5.30 to 6.00	6.00 to 6.30	5.00 to 5.30
C#Cc1cccc2nc([C@H](C)NC(=O)c3c(N)nn4cccnc34)n(-c3ccc(F)cc3)c(=O)c12	7.00 to 9.00	5.30 to 6.00	7.00 to 9.00	5.00 to 5.30
C[C@H](NC(=O)c1c(N)nn2cccnc12)c1cc2ccc3ccccc3c2c(=O)n1-c1ccccc1	5.00 to 6.00	5.00 to 5.30	6.00 to 6.30	5.00 to 5.30
Cc1c(C#Cc2cccc3nc([C@H](C)NC(=O)c4c(N)nn5cccnc45)n(-c4ccccc4)c(=O)c23)cnn1C	6.30 to 7.00	5.00 to 5.30	6.30 to 7.00	5.00 to 5.30
C[C@H](NC(=O)c1c(N)nn2cccnc12)c1cc2cccc(C#CC3CCOC3)c2c(=O)n1-c1ccccc1 (stereo not given in full)	6.30 to 7.00	5.00 to 5.30	7.00 to 9.00	5.00 to 5.30
Cc1ncccc1C#Cc1cccc2cc([C@H](C)NC(=O)c3c(N)nn4cccnc34)n(-c3ccccc3)c(=O)c12	5.00 to 6.00	5.00 to 5.30	5.30 to 6.00	5.00 to 5.30
C#Cc1cccc2nc([C@H](C)NC(=O)c3c(N)nn4cccnc34)n(C)c(=O)c12	7.00 to 9.00	5.30 to 6.00	6.00 to 6.30	6.00 to 6.30
C[C@H](NC(=O)c1c(N)nn2cccnc12)c1cc2cccc(C#Cc3cc[nH]c(=O)c3)c2c(=O)n1-c1ccccc1	6.30 to 7.00	5.00 to 5.30	6.30 to 7.00	5.00 to 5.30
CCOC(C#Cc1cccc2cc([C@H](C)NC(=O)c3c(N)nn4cccnc34)n(-c3ccccc3)c(=O)c12)OCC	6.00 to 6.30	5.00 to 5.30	6.00 to 6.30	5.00 to 5.30
CC#Cc1cccc2cc(C(C)NC(=O)c3c(N)nn4cccnc34)c(-c3ccccc3)nc12 (stereo not given)	7.00 to 9.00	5.30 to 6.00	6.30 to 7.00	5.30 to 6.00
Cc1nc(C#Cc2cccc3nc([C@H](C)NC(=O)c4c(N)nn5cccnc45)n(-c4ccccc4)c(=O)c23)cs1	6.00 to 6.30	5.00 to 5.30	7.00 to 9.00	5.00 to 5.30
C#Cc1cccc2nc([C@H](C)NC(=O)c3c(N)nn4cccnc34)n(-c3ccc(F)c(F)c3)c(=O)c12	6.30 to 7.00	5.00 to 5.30	6.30 to 7.00	5.00 to 5.30
C[C@H](NC(=O)c1c(N)nn2cccnc12)c1cc2cccc(C#CC3CC3)c2c(=O)n1C1CC1	6.30 to 7.00	5.30 to 6.00	5.30 to 6.00	5.30 to 6.00
C[C@H](NC(=O)c1c(N)nn2cccnc12)c1cc2cccc(CC(=O)c3cn[nH]c3)c2c(=O)n1-c1ccccc1	6.30 to 7.00	5.30 to 6.00	6.00 to 6.30	5.00 to 5.30
C#Cc1cccc2nc([C@H](C)NC(=O)c3c(N)nn4cccnc34)n(-c3ccccc3)c(=O)c12	7.00 to 9.00	5.30 to 6.00	7.00 to 9.00	5.30 to 6.00
CC(=O)N1CCC(C#Cc2cccc3cc([C@H](C)NC(=O)c4c(N)nn5cccnc45)n(-c4ccccc4)c(=O)c23)CC1	6.00 to 6.30	5.00 to 5.30	6.30 to 7.00	5.00 to 5.30
C[C@H](NC(=O)c1c(N)nn2cccnc12)c1cc2cccc(C#Cc3cncn3C)c2c(=O)n1C1CC1	6.30 to 7.00	5.00 to 5.30	5.30 to 6.00	5.30 to 6.00
C[C@H](NC(=O)c1c(N)nn2cccnc12)c1cc2cccc(C#CCN3CCOCC3)c2c(=O)n1-c1ccccc1	5.00 to 6.00	5.00 to 5.30	6.30 to 7.00	5.00 to 5.30
